These are literature values, as cited in publication PMC2887613 (ChemMedChem, 2009).

The structures appear in SMILES notation. Where two headings read alike, the source gives them in different places.

The target in series [1] is T1, rat M4 (Rattus norvegicus, UniProt P08485).
T1 sequence (P08485 1-478): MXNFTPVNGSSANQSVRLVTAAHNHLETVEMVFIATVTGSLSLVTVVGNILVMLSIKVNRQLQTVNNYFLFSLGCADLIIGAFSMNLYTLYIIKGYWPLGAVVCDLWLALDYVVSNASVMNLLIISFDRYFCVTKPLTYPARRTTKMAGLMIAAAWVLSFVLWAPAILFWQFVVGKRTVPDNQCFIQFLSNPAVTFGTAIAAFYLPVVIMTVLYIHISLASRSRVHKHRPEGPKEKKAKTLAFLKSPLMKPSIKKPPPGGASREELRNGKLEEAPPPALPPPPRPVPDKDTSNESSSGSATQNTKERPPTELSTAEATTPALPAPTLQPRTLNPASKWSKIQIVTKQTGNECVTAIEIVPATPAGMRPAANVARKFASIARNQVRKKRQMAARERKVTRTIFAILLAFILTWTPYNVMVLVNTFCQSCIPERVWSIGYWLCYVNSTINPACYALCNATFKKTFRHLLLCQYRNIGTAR

For series [2] the following is noted: lead compound.
The target of series [3] is T1, rat M4. The settings on record: rat M4/Gqi5-expressing cells, first generation compounds.
For series [4] the following is noted: human, microsomes, 1.5 h.
The conditions of series [5]: rat, microsomes, 1.5 h.

Consider `Cc1cc(C)c2c(N)c(C(=O)NCc3ccc(Cl)cc3)sc2n1` [Compd 1], for which the brain penetration result was “lack of brain penetration”. Moreover, the “leftward shift of an ACh CRC” value in series [1] (Ca2+ mobilization assay in rat M4/Gqi5-expressing cells) is on record as 47 fold. In series [1] (first generation compounds, previously reported), the “ACh CRC fold-shift” value was 47 x. Besides, the solubility entry in series [2] is on record as “solubility issues”. Besides, in series [3], the EC50 is 400 nM.

For the compound `COc1ccc(CNC(=O)c2sc3nc(C)cc(C)c3c2N)cc1` [Compd 3], the parent remaining in series [4] and in series [5] was < 10% throughout. Moreover, the brain penetration entry (in vivo) is given as “centrally penetrating”.

One may read the EC50 as the concentration giving half of the maximal effect.
